The values that follow come from patent US20220142948A1, “COMPOSITIONS AND METHODS FOR MODULATING METABOLIC REGULATORS OF T CELL PATHOGENICITY” (The Broad Institute, Inc., priority 2019, published 2022).

In test [1] the test system is Th17 cells (Th17n, Th17p). Put plainly: qPCR of in vitro differentiated T cells. It counts as cell-based, mouse. The protocol: qPCR. RNA was isolated using RNeasy Plus Mini Kit (Qiagen) and reverse transcribed to cDNA with iScript cDNA Synthesis Kit (Bio-Rad). Gene expression was analyzed by quantitative real-time PCR on a ViiA7 System (Thermo Fisher Scientific) using TaqMan Fast
Advanced Master Mix (Thermo Fisher Scientific) with the following primer/probe sets: Il-17a (Mm00439618_m1), Il-17f (Mm00521423_m1), Foxp3 (Mm00475162_m1), Tead1 (Mm00493507_m1), Taz (Mm00504978_m1), Sat1 (Mm00485911_g1) and Actb (Applied Biosystems). Expression values were calculated relative to Actb detected in the same sample by duplex qPCR.
qPCR. RNA was isolated using RNeasy Plus Mini Kit (Qiagen) and reverse transcribed to cDNA with iScript cDNA Synthesis Kit (Bio-Rad). Gene expression was analyzed by quantitative real-time PCR on a ViiA7 System (Thermo Fisher Scientific) using TaqMan Fast Advanced Master Mix (Thermo Fisher Scientific) with the following primer/probe sets: Ass1 (Mm00711256_m1), Odc1 (Mm02019269_g1), Sat1 (Mm00485911_g1), Srm (Mm00726089_s1), Sms (Mm00786246_s1), Il-17a (Mm00439618_m1), Il-17f (Mm00521423_m1), Foxp3 (Mm00475162_m1), Tead1 (Mm00493507_m1), Taz (Mm00504978_m1), and Actb (Applied Biosystems). Expression values were calculated relative to Actb detected in the same sample by duplex qPCR.
(In general: In qPCR the cycle at which signal appears reflects the starting amount.)

Test [2] concerns Th17 cells (Th17n, Th17p). Put plainly: Protein, phospho-protein and histone mark analysis by flow cytometry. It counts as cell-based, mouse. The procedure: Proliferation was assessed by staining with CellTrace Violet (Thermo Fisher Scientific) per manufacturer's instructions. Apoptosis was assessed using Annexin V staining kit (BioLegend). Phosphorylation of proteins to determine cell signaling was performed with BD Phosflow buffer system (BD bioscience) as per manufacturer's instructions.
T cell differentiation culture and flow cytometry. Naïve CD4+CD44-CD62L+CD25− T cells were sorted using BD FACSAria sorter and activated with plate-bound anti-CD3 (1 μg/ml) and antiCD28 antibodies (1 μg/ml) in the presence of cytokines at a concentration of 5×10^5 cells/ml. For T cell differentiations the following combinations of cytokines were used: pathogenic Th17: 25 ng/ml rmIL-6, 20 ng/ml rmIL-1b (both Miltenyi Biotec) and 20 ng/ml rmIL-23 (R&D systems); non-pathogenic Th17: 25 ng/ml rmIL-6 and 2 ng/ml of rhTGFb1 (Miltenyi Biotec); iTreg: 2 ng/ml of rhTGFb1; Th1: 20 ng/ml rmIL-12 (R&D systems); Th2: 20 ng/ml rmIL-4 (Miltenyi Biotec). Intracellular cytokine staining was performed after incubation for 4-6h with Cell Stimulation cocktail plus Golgi transport inhibitors (Thermo Fisher Scientific) using the BD Cytofix/Cytoperm buffer set (BD Biosciences) per manufacturer's instructions. Transcription factor staining was performed using the Foxp3/Transcription Factor Staining Buffer Set (eBioscience). Proliferation was assessed by staining with CellTrace Violet (Thermo Fisher Scientific) per manufacturer's instructions. Apoptosis was assessed using Annexin V staining kit (BioLegend). Phosphorylation of proteins to determine cell signaling was performed with BD Phosflow buffer system (BD bioscience) as per manufacturer's instructions.
A general note: A flow cytometer gives signals particle by particle.

Test [3] relates to experimental autoimmune encephalomyelitis (EAE). Put plainly: Adoptive transfer EAE with 2D2 TCR-transgenic Th17 cells differentiated in the presence of inhibitor. It is filed as in vivo, mouse. The source says: For adoptive transfer EAE, naïve 2D2 transgenic T cells were sorted and differentiated into Th17n cells+/−EGCG or Th17p+/−DHEA as described for three days followed by a resting phase in the presence of IL-23 alone for 2 days. Cells were then harvested and restimulated with plate-bound anti-CD3 and anti-CD28 for 2 days prior to transfer. 2-8 million cells were transferred per mouse intravenously.
For adoptive transfer EAE, naive T cells (CD4+CD44-CD62L+CD25-) were isolated from 2D2 TCR-transgenic mice and activated with anti-CD3 ([…]) and anti-CD28 ([…]) in the presence of differentiation cytokines for 68h. Cells were rested for 2 days and restimulated with plate-bound anti-CD3 (0.5 mg/ml for pathogenic condition; […] for non-pathogenic condition) and anti-CD28 ([…]) for 2 days prior to transfer. Equal number (2 to 8 million) cells were transferred per mouse intravenously.

Setting [4] is: non-pathogenic and pathogenic Th17 cells.

“Also recorded” adds a separate entry of the source.

`NCCC[C@](N)(C(=O)O)C(F)F` [DFMO, 2-(difluoromethyl)ornithine]: in test [1], the Ass1 expression result is “specifically suppresses”. Besides, the “IL-17 (quantitative real time PCR)” value in test [1] (CD4 T cells) was “decreased”. In addition, the SAT1 expression result in test [1] (T cells, Th17n and Th17p) is given as “reduces the expression; also recorded: decrease; also recorded: specifically suppresses; also recorded: decreases expression; also recorded: consistently suppressed”. In test [1] (setting [4]), the “relative expression of Foxp3” value was “increase”, the “relative expression of IL17A” value is on record as “decrease” and the “relative expression of IL17F” value is recorded as “decrease”. The SAT1 expression result in test [1] (pathogenic Th17 cells) is on record as “decreased expression”. Moreover, the “total Stat3 protein levels” value in test [2] is recorded as “not total Stat3 protein levels”. For the same molecule, in test [2] (Th17 cells), the H3K4 trimethylation entry is given as “promoted”, the H3K9 trimethylation result was “promoted”, the H3K27 trimethylation entry is listed as “promoted” and the pStat3 result was “does not seem to alter; also recorded: did not alter; also recorded: inconsistently regulated”. In addition, the pStat3 entry in test [2] (Th17p cells) is “decreased”. Moreover, in test [2] (both types of Th17 cells), the “pFoxo1(S256)” value is listed as “promoted”.
As for epigallocatechin-3-gallate [EGCG], the “optic neuritis/perineuritis in host mice” value in test [3] (EGCG on Th17n, DHEA on Th17p) was “promoted”. For the same molecule, the EAE severity entry in test [3] (Th17n cells with IL-23 in differentiation culture, vs IL-23+solvent) is reported as “significantly more severe EAE”. In addition, the “number of CNS lesions (meninges and parenchyma)” value in test [3] (Th17n transfer) is recorded as “increased number of CNS lesions”. In test [3] (mouse, in vivo), the “Wallerian degeneration in proximal spinal nerve roots” value is on record as “only experimental group to produce Wallerian degeneration; also recorded: induce Wallerian degeneration; also recorded: greater”. Moreover, the EAE incidence rate in test [3] (recipients of EGCG-treated Th17n cells, control group 0/12) is reported as 10/12. For the same molecule, the meningeal inflammation entry in test [3] (vs. Control mice) is on record as “greater meningeal inflammation”.
